Measurements as given in US8399208B2, “Method and kit for the measurement of neutrophil cell activation” (Universite de Liege, priority 2004, dated 2013).

Columns and labels:
[1] = test system: activated equine neutrophils; test: Chemiluminescence response (lucigenin) of PMA-activated equine neutrophils; assay type: cell-based, horse; settings: for Inhibition percentage on chemiluminescence response of activated neutrophils: 10^-5 M, neutrophils activated with 8×10^-7 M PMA, lucigenin
Procedure: (§1) Neutrophils isolated from citrated blood of healthy horses were counted, suspended in phosphate buffer saline (PBS) at pH 7.4 and incubated 10 min at 37° C. with curcumin or THC at the final concentration of 10^−4, 10^−5 or 10^−6 M. After incubation and centrifugation (1000×g, 10 min), the neutrophils were resuspended in PBS and either activated 30 min with 8×10^−7 M phorbol myristate acetate (PMA), with a simultaneous monitoring of the chemiluminescent response in presence of lucigenin (5×10^-8 M), or activated in the same conditions followed by centrifugation and MPO measurement in the supernatant. MPO, marker of neutrophil degranulation, was measured by a specific ELISA assay raised against equine MPO. The effect of polyphenols on MPO activity was tested by SIEFED (“Specific Immunological Extraction Followed by Enzymatic Detection”) method that allows the study of drug interaction with the enzyme without reaction medium interferences.

[2] = test system: activated equine neutrophils; test: MPO release by PMA-activated neutrophils, MPO measured by ELISA in the supernatant; assay type: cell-based, horse; settings: for Inhibitory percentage, MPO assay by ELISA in the supernatant after neutrophils activation with PMA (MPO release): drug concentration 10^-5 M
Procedure: FIG. 16 represents the inhibitory effect of curcumin on MPO release by neutrophils incubated in PBS buffer with or without stimulation with phorbol myristate acetate (PMA) (Curcumin (Curcu) was dissolved in ethanol. MPO was measured by ELISA in the supernatant of activated neutrophils).
The ELISA developed for MPO (1) measurement is further referred to as a MYELO-ELISA. Rabbit IgG, the primary antibody (2), is immobilized (coated) in excess (3 μg/ml) onto microtitration wells (3) (Cliniplate EB, Labsystem). Standard or test antigen (equine MPO (1)) is incubated overnight with the primary antibody (2) at 4° C. After washing (0.9% NaCl solution containing 0.1% tween 20), the immobilized antibody-antigen complex is incubated (2 h, 37° C.) with an excess (5 μg/ml) of guinea pig IgG, the secondary antibody (4). After washing, a third antibody (5) produced against guinea pig IgG is added. This third IgG (5) (goat IgG) is labelled with alkaline phosphatase (6) and recognizes the “sandwich” complex “primary antibody-MPO-secondary antibody”. After washing, phosphatase activity is detected by incubation (30 min, 37° C., in the darkness) with a paranitrophenyl phosphate solution (phosphatase substrate, Sigma). The reaction is stopped with NaOH and the absorbance (405 nm) is measured with a Multiscan Ascent apparatus (Labsystem) (7). All the volumes added into the wells comprise 100 μl, except for washing (300 μl) and for the substrate solution (200 μl). Controls (blank) and dilutions of the standard MPO and samples were established with dilution buffer [PBS (20 mM phosphate, 137 mM NaCl and 2.7 mM KCl pH 7.4) to which 5 g/L bovine serum albumin and 0.1% tween 20 was added]. The same ELISA technique was developed also for monoclonal antibodies as primary antibody.
as §1

equine MPO = test: MPO activity by SIEFED (specific immunological extraction followed by enzymatic detection); assay type: biochemical, horse; settings: for Effect on MPO activity (in words): SIEFED, polyphenol incubated with MPO, then capture, washing, enzymatic detection
Procedure: FIG. 17 represents the inhibitory effect of curcumin on MPO activity. Concentration of MPO used: 9 ng/ml. The incubation time of curcumin with MPO before assay by SIEFED was 30 min. (The most concentrated curcumin solution was prepared in ethanol (175 mM) and dilutions of this concentrated solution were performed with PBS buffer).
As for the ELISA test, the primary antibody, that captures MPO, is rabbit IgG (3 μg/ml). Standard MPO or unknown sample is incubated 2 h at 37° C. After washing, the peroxidase activity of MPO is detected by adding 100 μl of a 10 μM H2O2 solution and 40 μM of Amplex® Red (10-acetyl-3,7-dihydroxyphenoxazine; Molecular Probes) in phosphate buffer (50 mM, pH 7.5). After incubation in the darkness (30 min, 37° C.), the fluorescence is read at 590 nm with a Fluoroskan Ascent apparatus (Labsystems). The volumes of the primary antibody and the sample put in the wells, are 200 μl. Controls (blank) and dilutions of the samples are established with dilution buffer.
as §1
The SIEFED was applied to study the effects of two natural polyphenols (curcumin and resveratrol) on MPO activity.

## COc1cc(/C=C/C(=O)CC(=O)/C=C/c2ccc(O)c(OC)c2)ccc1O [Curcumin]
[1]; 10^-4, 10^-5 or 10^-6 M
  Effect on the chemiluminescence response of activated neutrophils (in words): dose dependent inhibitory effects
[1]
  Inhibition percentage on chemiluminescence response of activated neutrophils: 70%
[2]; 10^-4, 10^-5 or 10^-6 M
  Effect on the MPO release by activated neutrophils (in words): dose dependent inhibitory effects
[2]; drug concentration 10^-4 M
  Inhibitory percentage, MPO assay by ELISA in the supernatant after neutrophils activation with PMA: 83.5%
[2]
  Inhibitory percentage, MPO assay by ELISA in the supernatant after neutrophils activation with PMA (MPO release): 43.6%
[2]; listed as curcumin
  Inhibitory percentage, MPO assay by ELISA in the supernatant after neutrophils activation with PMA (MPO release): 44%
[2]; drug concentration 10^-6 M
  Inhibitory percentage, MPO assay by ELISA in the supernatant after neutrophils activation with PMA: 0%
Equine MPO
  Effect on MPO activity (in words): dose dependent inhibitory effects
Equine MPO; listed as curcumin
  Effect on MPO activity (in words): direct dose dependent inhibitory effect
Equine MPO; drug concentration 10^-4 M
  Inhibitory percentage, MPO activity (SIEFED): 96.2%
Equine MPO; drug concentration 10^-5 M
  Inhibitory percentage, MPO activity (SIEFED): 60.4%
Equine MPO; drug concentration 10^-5 M, listed as curcumin
  Inhibitory percentage, MPO activity (SIEFED): 60%
Equine MPO; drug concentration 10^-6 M
  Inhibitory percentage, MPO activity (SIEFED): 21.1%

## Oc1ccc(C=Cc2cc(O)cc(O)c2)cc1 [resveratrol]
Equine MPO
  Effect on MPO activity (in words): direct dose dependent inhibitory effect

## COc1cc(CCC(=O)CC(=O)CCc2ccc(O)c(OC)c2)ccc1O [tetrahydrocurcumin]
[1]
  Inhibition percentage on chemiluminescence response of activated neutrophils: 12%
[2]; drug concentration 10^-4 M
  Inhibitory percentage, MPO assay by ELISA in the supernatant after neutrophils activation with PMA: 41%
[2]
  Inhibitory percentage, MPO assay by ELISA in the supernatant after neutrophils activation with PMA (MPO release): 18%
[2]; drug concentration 10^-6 M
  Inhibitory percentage, MPO assay by ELISA in the supernatant after neutrophils activation with PMA: 17%
